# Measured values published in article PMC10745882, “Investigation of Drug-Interaction Potential for Arthritis Dietary Supplements: Chondroitin Sulfate, Glucosamine, and Methylsulfonylmethane” (Molecules, 2023).
# Legend:
# [1] = target: T1, CYP2A6 (Homo sapiens, UniProt P11509); assay: CYP inhibition assay in human liver microsomes (LC-MS/MS cocktail), coumarin to 7-OH-coumarin; format: in vitro ADME
# T1 construct: Pooled human liver microsomes were purchased from BD Gentest; tissue BD Gentest; host or cells: pooled human liver microsomes
# T1 sequence (P11509 1-494): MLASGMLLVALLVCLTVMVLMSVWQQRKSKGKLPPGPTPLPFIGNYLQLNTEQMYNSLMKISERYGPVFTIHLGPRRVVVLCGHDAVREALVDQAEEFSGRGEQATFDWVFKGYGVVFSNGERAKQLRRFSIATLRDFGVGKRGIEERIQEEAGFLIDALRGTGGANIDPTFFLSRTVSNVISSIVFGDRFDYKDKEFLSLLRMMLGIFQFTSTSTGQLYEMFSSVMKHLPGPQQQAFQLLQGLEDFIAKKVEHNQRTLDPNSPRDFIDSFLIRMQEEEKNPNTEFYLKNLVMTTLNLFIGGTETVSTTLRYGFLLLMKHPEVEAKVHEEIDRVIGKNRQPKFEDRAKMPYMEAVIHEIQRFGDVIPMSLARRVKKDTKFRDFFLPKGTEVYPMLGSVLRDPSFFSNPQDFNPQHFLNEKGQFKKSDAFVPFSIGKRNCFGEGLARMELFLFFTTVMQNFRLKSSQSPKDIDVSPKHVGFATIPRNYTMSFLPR
# Method: (§1) For the experimental method, the reference method was used. Briefly, incubation mixtures were composed of 0.5 mg/mL human liver microsomes; varying concentrations of CS in DW (0.1, 0.3, 1, 3, 10, 30, 100, and 200 µM) or MSM in DW (0.1, 0.3, 1, 3, 10, 30, 100, 300, and 1000 µM) or GCS in DMSO (0.1, 0.3, 1, 3, 10, 30, 100, 300, and 1000 µM); a substrate mixture in DMSO (40 µM phenacetin for CYP1A2; 2.5 µM coumarin for CYP2A6; 80 µM bupropion for CYP2B6; 10 µM diclofenac for CYP2C9; 80 µM [±]-mephenytoin for CYP2C19; 5 µM dextromethorphan for CYP2D6; 2.5 µM midazolam and 30 µM testosterone for CYP3A4); and an NADPH generating system (NGS; 0.1 M glucose-6-phosphate, 10 mg/mL β-NADP^+, and 1 U/mL glucose-6-phosphate dehydrogenase) in a total volume of 200 µL potassium phosphate buffer (0.1 M, pH 7.4). The reaction mixture, excluding NGS, underwent pre-incubation at 37 °C for 5 min, followed by further incubation with NGS for 30 min in a water bath. Well-established selective CYP inhibitors were employed as positive controls (40 µM ketoconazole for CYP3A4, 50 µM furafyllin for CYP1A2, 10 µM quinidine for CYP2D6, 125 µM ticlopidine for CYP2C19 and CYP2B6, 10 µM 8-methoxsalen for CYP2A6, and 10 µM sulfaphenazole for CYP2C9). Post incubation, the reaction was halted by adding 50 µL ice-cold 1% formic acid acetonitrile. After centrifugation at 13,200 rpm for 5 min, the supernatant was collected from the sample and subjected to analysis via an LC-MS/MS system. All experiments were performed in triplicate.
# (§2) For the experimental method, the reference method was used. The LC-MS/MS system utilized in this study consisted of an Agilent 1260 binary pump HPLC system coupled with the Agilent 6460 Triple Quadrupole mass spectrometer (Agilent Technologies, Santa Clara, CA, USA), featuring an electrospray ionization source. Chromatographic separation was achieved using a Fortis C8 column (2.1 × 100 mm, 5.0 µm; Fortis Technologies Ltd., Neston, UK). The HPLC mobile phases comprised (A) 0.1% formic acid and (B) 0.1% formic acid in 90% acetonitrile. A gradient elution method was employed with an initial solvent B concentration of 15% and a flow rate of 0.25 mL/min. […] The total run time was 11.0 min, and the injection volume was 5 µL. Mass detection was conducted in the positive ion mode using multiple reaction monitoring (MRM). Specific MRM transitions for each analyte are detailed in Table S4.
# [2] = target: T2, CYP2B6 (Homo sapiens, UniProt P20813); assay: CYP inhibition assay in human liver microsomes (LC-MS/MS cocktail), bupropion to OH-bupropion; format: in vitro ADME
# T2 construct: Pooled human liver microsomes were purchased from BD Gentest; tissue BD Gentest; host or cells: pooled human liver microsomes
# T2 sequence (P20813 1-491): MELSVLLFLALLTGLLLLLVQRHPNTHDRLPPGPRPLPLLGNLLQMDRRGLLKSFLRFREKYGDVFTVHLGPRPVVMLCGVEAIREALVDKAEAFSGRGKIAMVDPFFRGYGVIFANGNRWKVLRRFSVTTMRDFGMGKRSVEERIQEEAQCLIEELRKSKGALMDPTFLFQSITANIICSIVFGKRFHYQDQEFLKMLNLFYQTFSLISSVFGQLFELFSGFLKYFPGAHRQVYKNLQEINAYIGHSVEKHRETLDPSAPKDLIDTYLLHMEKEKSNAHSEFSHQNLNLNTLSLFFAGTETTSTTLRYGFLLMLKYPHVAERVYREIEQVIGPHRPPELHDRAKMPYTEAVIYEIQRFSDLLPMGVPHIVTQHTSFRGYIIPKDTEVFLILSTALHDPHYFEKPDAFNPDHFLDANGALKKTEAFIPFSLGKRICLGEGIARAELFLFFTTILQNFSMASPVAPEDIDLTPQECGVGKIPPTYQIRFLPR
# Method: as §1, §2
# [3] = system: seven CYP isozymes (CYP1A2, CYP2A6, CYP2B6, CYP2C9, CYP2C19, CYP2D6, CYP3A4); assay: CYP inhibition assay in human liver microsomes, statements on all tested isozymes; format: in vitro ADME
# Method: as §1
# For the experimental method, the reference method was used. The LC-MS/MS system utilized in this study consisted of an Agilent 1260 binary pump HPLC system coupled with the Agilent 6460 Triple Quadrupole mass spectrometer (Agilent Technologies, Santa Clara, CA, USA), featuring an electrospray ionization source. Chromatographic separation was achieved using a Fortis C8 column (2.1 × 100 mm, 5.0 µm; Fortis Technologies Ltd., Neston, UK). The HPLC mobile phases comprised (A) 0.1% formic acid and (B) 0.1% formic acid in 90% acetonitrile. […]
# [4] = target: T3, CYP2D6 (Homo sapiens, UniProt P10635); parameters: method as in PMID 34821124, PMID 29488228; conditions: previous studies; cited from earlier work
# T3 construct: Pooled human liver microsomes were purchased from BD Gentest; tissue BD Gentest; host or cells: pooled human liver microsomes
# T3 sequence (P10635 whole entry): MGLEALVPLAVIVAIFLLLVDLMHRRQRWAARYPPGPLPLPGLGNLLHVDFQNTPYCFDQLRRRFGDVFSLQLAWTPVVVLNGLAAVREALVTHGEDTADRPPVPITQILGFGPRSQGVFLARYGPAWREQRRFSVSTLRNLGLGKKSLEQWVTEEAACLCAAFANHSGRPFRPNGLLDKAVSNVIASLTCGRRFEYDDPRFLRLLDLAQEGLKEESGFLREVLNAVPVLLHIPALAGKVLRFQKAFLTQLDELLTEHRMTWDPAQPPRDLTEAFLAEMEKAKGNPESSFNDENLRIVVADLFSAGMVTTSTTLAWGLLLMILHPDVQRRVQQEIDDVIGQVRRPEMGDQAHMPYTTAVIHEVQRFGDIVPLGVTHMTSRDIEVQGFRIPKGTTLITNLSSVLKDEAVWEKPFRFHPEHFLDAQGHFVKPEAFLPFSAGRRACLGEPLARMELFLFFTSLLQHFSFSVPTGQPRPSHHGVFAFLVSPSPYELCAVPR
# [5] = system: CYP2C9; parameters: method as in PMID 34821124, PMID 29488228; conditions: previous studies; cited from earlier work
smiles,measurement,setting,value
"N[C@H]1C(O)O[C@H](CO)[C@@H](O)[C@@H]1O (stereo partly shown) [GCS, glucosamine]","Remaining Activities (% of Control, n = 3)",[1]; test substance 0.3 μM,107.6 ± 5.2 % of Control
same,"Remaining Activities (% of Control, n = 3)",[1]; test substance 1 μM,105.3 ± 0.4 % of Control
same,"Remaining Activities (% of Control, n = 3)",[1]; test substance 3 μM,106.2 ± 2.3 % of Control
same,"Remaining Activities (% of Control, n = 3)",[1]; test substance 10 μM,101.5 ± 1.4 % of Control
same,"Remaining Activities (% of Control, n = 3)",[1]; test substance 30 μM,102.1 ± 2.5 % of Control
same,"Remaining Activities (% of Control, n = 3)",[1]; test substance 100 μM,103.4 ± 2.7 % of Control
same,"Remaining Activities (% of Control, n = 3)",[1]; test substance 300 μM,97.9 ± 0.4 % of Control
same,"Remaining Activities (% of Control, n = 3)",[1]; test substance 1000 μM,94.1 ± 7.3 % of Control
same,"Remaining Activities (% of Control, n = 3)",[2]; test substance 0.3 μM,121.0 ± 11.6 % of Control
same,"Remaining Activities (% of Control, n = 3)",[2]; test substance 1 μM,116.2 ± 5.8 % of Control
same,"Remaining Activities (% of Control, n = 3)",[2]; test substance 3 μM,114.3 ± 3.5 % of Control
same,"Remaining Activities (% of Control, n = 3)",[2]; test substance 10 μM,108.2 ± 3.1 % of Control
same,"Remaining Activities (% of Control, n = 3)",[2]; test substance 30 μM,107.8 ± 1.3 % of Control
same,"Remaining Activities (% of Control, n = 3)",[2]; test substance 100 μM,111.2 ± 2.3 % of Control
same,"Remaining Activities (% of Control, n = 3)",[2]; test substance 300 μM,105.6 ± 1.8 % of Control
same,"Remaining Activities (% of Control, n = 3)",[2]; test substance 1000 μM,103.5 ± 9.2 % of Control
same,"inhibitory effects on CYP1A2, CYP2A6, CYP2B6, CYP2C9, CYP2C19, CYP2D6, and CYP3A4",[3],no inhibitory effects
same,inhibitory effects on CYP2D6,[4],no inhibitory effects
same,inhibitory effects on CYP2C9,[5],no inhibitory effects
